EP1884243A1, “Use of an antipsychotic drug for the treatment of ALS-associated cachexia” (Charité - Universitätsmedizin Berlin, priority 2006, dated 2008)

Assays:
ALS = ALS patients; background statement on the approved therapy; cited from earlier work
ALS-related cachexia [1] = experiment: Study 2: olanzapine treatment of ALS-related cachexia, case report of a patient; assay type: in vivo, human being
Description: A patient is reported, who developed a slowly-progressive motor neuron syndrome. The patient fulfilled the criteria for ALS. The disease began with atrophy and weakness of the small muscles of the right hand followed by weakness of the proximal muscles of right arm and the opposite upper limb. In the course of 4 years after onset they experienced progressive atrophy and flaccid paresis of the lower limbs resulting in a gait disorder. […] The patient was without dysphagia.
During the course of 12 months, the patient developed an unintended weight loss of 8.5 kg of body weight. The weight loss was associated with fatigue. The patient suffered from diminished appetite. The body mass index (BMI) reduced from 23.3 kg/ m^2 to 20.5 kg/m^2. At the same time the ALS functional rating scale (ALS-FRS revised) changed from 43 to 39 units. Most of the wasting occurred within 6 month before intervention (loss of 6.5 kg of body weight; total body weight of 61.5 kg). For the pharmacological intervention of ALS-related cachexia the medication with olanzapine was initiated. Olanzapine was given orally in the dosage of 5 mg per day. Olanzapine was administered once daily using one tablet of olanzapine 5 mg in the evening. The medication attenuated ALS-related cachexia and wasting. After 2 month of olanzapine treatment the body weight was stabilized (61.0 kg). The loss of BMI was also attenuated (20.3 kg/m^2). […] Residual motor functions were mobilized. […] At the time of this report, the olanzapine dosage was increased to 10 mg per day. Olanzapine was administered twice daily using one tablet of olanzapine 5 mg each in the morning and in the evening. […] The olanzapine treatment was ongoing. Based on reports on olanzapine-related weight gain in patients with psychosis, the target dose of olanzapine for the treatment of ALS-cachexia is 20 mg per day. In the case of persistent ALS-related weight loss, the treatment with 30 mg olanzapine per day is recommended.

ALS-related cachexia [2] = experiment: Study: olanzapine treatment of ALS-related cachexia, case report of a patient; assay type: in vivo, human being
Description: A patient is reported, who developed a slowly-progressive motor neuron syndrome. The patient fulfilled the criteria for definite ALS. The disease began with atrophy and weakness of the small muscles of the left hand followed by weakness of the right distal arm. In the course of 2 years after onset they experienced slowly progressive atrophy and flaccid paresis of the upper limbs with only residual functions in handling articles. After 4 years they developed a gait disorder which progressed to the point were they required a walking-aid. […] The patient was without dysphagia.
During the course of 10 months, the patient developed an unintended weight loss of 12 kg of body weight resulting in fatigue and reduced mobility. The patient suffered from diminished appetite. The body mass index (BMI) was 17.2 kg/m^2 and fulfilled the diagnostic criteria of cachexia. For the pharmacological intervention of ALS-related cachexia the medication with olanzapine was initiated. Olanzapine was given orally in the dosage of 5 mg per day. Olanzapine was administered twice daily using one tablet of olanzapine 2.5 mg each in the morning and in the evening. […] The BMI increased to 18,8 kg/m^2. […] Residual motor functions were mobilized. […] At the time of this report, the olanzapine treatment was ongoing.

ALS-related cachexia [3] = experiment: Study 3: olanzapine treatment of ALS-related cachexia, case report of a patient; assay type: in vivo, human being
Description: A patient is reported, who developed a slowly-progressive motor neuron syndrome. The patient fulfilled the criteria for ALS. The disease began with atrophy and weakness of the proximal left arm followed by weakness of the distal muscles of left upper limb. In the course of 2 years after onset they experienced progressive atrophy and flaccid paresis of the opposite limb with only residual functions in handling articles. After 3 years the disorder progressed to the point that was complete loss of manual functions. The patient developed hypoventilation resulting in ventilatory support using non-invasive intermittent positive pressure ventilation (NIPPV). The patient was without dysphagia.
During the course of 9 months, the patient developed an unintended weight loss of 14.5 kg of body weight. The weight loss was associated with fatigue. The patient suffered from diminished appetite. The body mass index (BMI) reduced from 23.0 kg/ m^2 to 17.5 kg/m^2. Most of the wasting occurred within 5 month before intervention (loss of 8.5 kg of body weight; total body weight reduced from 55 kg to 46.5 kg). For the pharmacological intervention of ALS-related cachexia the medication with olanzapine was initiated. Olanzapine was given orally in the dosage of 5 mg per day. Olanzapine was administered once daily using one tablet of olanzapine 5 mg in the evening. After 4 weeks of treatment, olanzapine dosage was increased to 10 mg per day. Olanzapine was administered twice daily using one tablet of olanzapine 5 mg each in the morning and in the evening. The medication attenuated ALS-related cachexia and wasting. After 2 month of olanzapine treatment the body weight was stabilized (45.5 kg). The loss of BMI was also attenuated (17.1 kg/m^2). The nutritional state and the general strength improved. […] The olanzapine treatment was ongoing. Based on reports on olanzapine-related weight gain in patients with psychosis, the target dose of olanzapine for the treatment of ALS-cachexia is 20 mg per day. In the case of persistent ALS-related weight loss, the treatment with 30 mg olanzapine per day is recommended.

SMILES | prolonging an ALS-patient's lifetime (ALS) | BMI (ALS-related cachexia [1]; after 2 month of olanzapine 5 mg per day orally, BMI 20.5 kg/m^2 before intervention) [kg/m^2] | body weight (ALS-related cachexia [1]; after 2 month of olanzapine 5 mg per day orally, total body weight 61.5 kg before intervention) [kg] | adverse events (ALS-related cachexia [1]; olanzapine orally 5 mg per day, later increased to 10 mg per day) | adverse events (ALS-related cachexia [2]; olanzapine orally 5 mg per day) | weight gain (ALS-related cachexia [2]; olanzapine orally 5 mg per day (2.5 mg twice daily), within the course of 8 weeks, patient, BMI 17.2 kg/m^2 before treatment) [kg] | BMI (ALS-related cachexia [2]; olanzapine orally 5 mg per day, after treatment (8 weeks), BMI before treatment 17.2 kg/m^2) | body weight (ALS-related cachexia [3]; after 2 month of olanzapine (5 mg per day, after 4 weeks 10 mg per day, orally), 46.5 kg before intervention) [kg] | BMI (ALS-related cachexia [3]; after 2 month of olanzapine (5 mg per day, after 4 weeks 10 mg per day, orally), BMI 17.5 kg/m^2 before intervention) [kg/m^2] | adverse events (ALS-related cachexia [3]; olanzapine orally 5 mg per day, after 4 weeks 10 mg per day)
Nc1nc2ccc(OC(F)(F)F)cc2s1 [Riluzole] | 1.5-2.5 months |  |  |  |  |  |  |  |  | 
Cc1cc2c(s1)Nc1ccccc1N=C2N1CCN(C)CC1 [olanzapine] |  | 20.3 | 61.0 | not associated with adverse events | not associated with adverse events | 6 | 18,8 kg/m^2 | 45.5 | 17.1 | not associated with adverse events
